Experimental data published in ChEMBL document CHEMBL3044945, “Synthesis of 1,3,5-trisubstituted pyrazoline nucleus containing compounds and screening for antimicrobial activity” (2012).
In brackets after ≈: the same amount, converted by molar mass.

Key:
Format in all cases: functional
Micrococcus luteus [1] = test: Antibacterial activity against Micrococcus luteus MTCC 1538 at 500 ug/ml after 48 hr by cup-plate method; settings: MTCC 1538, 48 h, read-out: DIZ
Pseudomonas fluorescens [2] = test: Antibacterial activity against Pseudomonas fluorescens MTCC 2421 at 250 ug/ml after 48 hr by cup-plate method; settings: MTCC 2421, 48 h, read-out: DIZ
Pseudomonas aeruginosa [3] = test: Antibacterial activity against Pseudomonas aeruginosa MTCC 424 at 500 ug/ml after 48 hr by cup-plate method; settings: MTCC 424, 48 h, read-out: DIZ
Bacillus pumilus [4] = test: Antibacterial activity against Bacillus pumilus MTCC 1456 at 500 ug/ml after 48 hr by cup-plate method; settings: MTCC 1456, 48 h, read-out: DIZ
Penicillium chrysogenum [5] = test: Antifungal activity against Penicillium chrysogenum MTCC 161 at 1000 ug/ml after 48 hr by cup-plate method; settings: MTCC 161, 48 h, read-out: DIZ
Pseudomonas aeruginosa [6] = test: Antibacterial activity against Pseudomonas aeruginosa MTCC 424 at 750 ug/ml after 48 hr by cup-plate method; settings: MTCC 424, 48 h, read-out: DIZ
Aspergillus niger [7] = test: Antifungal activity against Aspergillus niger MTCC 2546 at 100 ug/ml after 48 hr by cup-plate method; settings: MTCC 2546, 48 h, read-out: DIZ
Pseudomonas fluorescens [8] = test: Antibacterial activity against Pseudomonas fluorescens MTCC 2421 at 750 ug/ml after 48 hr by cup-plate method; settings: MTCC 2421, 48 h, read-out: DIZ
Micrococcus luteus [9] = test: Antibacterial activity against Micrococcus luteus MTCC 1538 at 1000 ug/ml after 48 hr by cup-plate method; settings: MTCC 1538, 48 h, read-out: DIZ
Bacillus subtilis [10] = test: Antibacterial activity against Bacillus subtilis MTCC 441 after 24 to 48 hr by tube dilution method
Pseudomonas fluorescens [11] = test: Antibacterial activity against Pseudomonas fluorescens MTCC 2421 at 500 ug/ml after 48 hr by cup-plate method; settings: MTCC 2421, 48 h, read-out: DIZ
Pseudomonas fluorescens [12] = test: Antibacterial activity against Pseudomonas fluorescens MTCC 2421 after 24 to 48 hr by tube dilution method
Bacillus subtilis [13] = test: Antibacterial activity against Bacillus subtilis MTCC 441 at 750 ug/ml after 48 hr by cup-plate method; settings: MTCC 441, 48 h, read-out: DIZ
Staphylococcus aureus [14] = test: Antibacterial activity against Staphylococcus aureus MTCC 1430 at 750 ug/ml after 48 hr by cup-plate method; settings: MTCC 1430, 48 h, read-out: DIZ
Aspergillus niger [15] = test: Antifungal activity against Aspergillus niger MTCC 2546 at 1250 ug/ml after 48 hr by cup-plate method; settings: MTCC 2546, 48 h, read-out: DIZ
Pseudomonas aeruginosa [16] = test: Antibacterial activity against Pseudomonas aeruginosa MTCC 424 at 1250 ug/ml after 48 hr by cup-plate method; settings: MTCC 424, 48 h, read-out: DIZ
Penicillium chrysogenum [17] = test: Antifungal activity against Penicillium chrysogenum MTCC 161 at 500 ug/ml after 48 hr by cup-plate method; settings: MTCC 161, 48 h, read-out: DIZ
Staphylococcus aureus [18] = test: Antibacterial activity against Staphylococcus aureus MTCC 1430 after 24 to 48 hr by tube dilution method
Pseudomonas fluorescens [19] = test: Antibacterial activity against Pseudomonas fluorescens MTCC 2421 at 1250 ug/ml after 48 hr by cup-plate method; settings: MTCC 2421, 48 h, read-out: DIZ
Bacillus pumilus [20] = test: Antibacterial activity against Bacillus pumilus MTCC 1456 at 1250 ug/ml after 48 hr by cup-plate method; settings: MTCC 1456, 48 h, read-out: DIZ
Bacillus subtilis [21] = test: Antibacterial activity against Bacillus subtilis MTCC 441 at 100 ug/ml after 48 hr by cup-plate method; settings: MTCC 441, 48 h, read-out: DIZ
Bacillus subtilis [22] = test: Antibacterial activity against Bacillus subtilis MTCC 441 at 500 ug/ml after 48 hr by cup-plate method; settings: MTCC 441, 48 h, read-out: DIZ
Escherichia coli [23] = test: Antibacterial activity against Escherichia coli MTCC 1573 at 500 ug/ml after 48 hr by cup-plate method; settings: MTCC 1573, 48 h, read-out: DIZ
Aspergillus niger [24] = test: Antifungal activity against Aspergillus niger MTCC 2546 at 1000 ug/ml after 48 hr by cup-plate method; settings: MTCC 2546, 48 h, read-out: DIZ
Escherichia coli [25] = test: Antibacterial activity against Escherichia coli MTCC 1573 at 100 ug/ml after 48 hr by cup-plate method; settings: MTCC 1573, 48 h, read-out: DIZ
Bacillus subtilis [26] = test: Antibacterial activity against Bacillus subtilis MTCC 441 at 250 ug/ml after 48 hr by cup-plate method; settings: MTCC 441, 48 h, read-out: DIZ
Escherichia coli [27] = test: Antibacterial activity against Escherichia coli MTCC 1573 at 1250 ug/ml after 48 hr by cup-plate method; settings: MTCC 1573, 48 h, read-out: DIZ
Staphylococcus aureus [28] = test: Antibacterial activity against Staphylococcus aureus MTCC 1430 at 1000 ug/ml after 48 hr by cup-plate method; settings: MTCC 1430, 48 h, read-out: DIZ
Staphylococcus aureus [29] = test: Antibacterial activity against Staphylococcus aureus MTCC 1430 at 500 ug/ml after 48 hr by cup-plate method; settings: MTCC 1430, 48 h, read-out: DIZ
Staphylococcus aureus [30] = test: Antibacterial activity against Staphylococcus aureus MTCC 1430 at 250 ug/ml after 48 hr by cup-plate method; settings: MTCC 1430, 48 h, read-out: DIZ
Bacillus pumilus [31] = test: Antibacterial activity against Bacillus pumilus MTCC 1456 at 250 ug/ml after 48 hr by cup-plate method; settings: MTCC 1456, 48 h, read-out: DIZ
Pseudomonas aeruginosa [32] = test: Antibacterial activity against Pseudomonas aeruginosa MTCC 424 after 24 to 48 hr by tube dilution method
Micrococcus luteus [33] = test: Antibacterial activity against Micrococcus luteus MTCC 1538 after 24 to 48 hr by tube dilution method
Escherichia coli [34] = test: Antibacterial activity against Escherichia coli MTCC 1573 after 24 to 48 hr by tube dilution method
Pseudomonas aeruginosa [35] = test: Antibacterial activity against Pseudomonas aeruginosa MTCC 424 at 250 ug/ml after 48 hr by cup-plate method; settings: MTCC 424, 48 h, read-out: DIZ
Aspergillus niger [36] = test: Antifungal activity against Aspergillus niger MTCC 2546 at 500 ug/ml after 48 hr by cup-plate method; settings: MTCC 2546, 48 h, read-out: DIZ
Escherichia coli [37] = test: Antibacterial activity against Escherichia coli MTCC 1573 at 250 ug/ml after 48 hr by cup-plate method; settings: MTCC 1573, 48 h, read-out: DIZ
Bacillus pumilus [38] = test: Antibacterial activity against Bacillus pumilus MTCC 1456 at 750 ug/ml after 48 hr by cup-plate method; settings: MTCC 1456, 48 h, read-out: DIZ
Micrococcus luteus [39] = test: Antibacterial activity against Micrococcus luteus MTCC 1538 at 1250 ug/ml after 48 hr by cup-plate method; settings: MTCC 1538, 48 h, read-out: DIZ
Bacillus subtilis [40] = test: Antibacterial activity against Bacillus subtilis MTCC 441 at 1000 ug/ml after 48 hr by cup-plate method; settings: MTCC 441, 48 h, read-out: DIZ
Micrococcus luteus [41] = test: Antibacterial activity against Micrococcus luteus MTCC 1538 at 750 ug/ml after 48 hr by cup-plate method; settings: MTCC 1538, 48 h, read-out: DIZ
Penicillium chrysogenum [42] = test: Antifungal activity against Penicillium chrysogenum MTCC 161 at 250 ug/ml after 48 hr by cup-plate method; settings: MTCC 161, 48 h, read-out: DIZ
Pseudomonas aeruginosa [43] = test: Antibacterial activity against Pseudomonas aeruginosa MTCC 424 at 1000 ug/ml after 48 hr by cup-plate method; settings: MTCC 424, 48 h, read-out: DIZ
Pseudomonas fluorescens [44] = test: Antibacterial activity against Pseudomonas fluorescens MTCC 2421 at 1000 ug/ml after 48 hr by cup-plate method; settings: MTCC 2421, 48 h, read-out: DIZ

MIC (Bacillus subtilis [10]): 50 µg/mL (≈ 114 µM)
MIC (Pseudomonas fluorescens [12]): 30 µg/mL (≈ 68.4 µM)
MIC (Staphylococcus aureus [18]): 200 µg/mL (≈ 456 µM)
MIC (Pseudomonas aeruginosa [32]): 30 µg/mL (≈ 68.4 µM)
MIC (Micrococcus luteus [33]): 150 µg/mL (≈ 342 µM)
MIC (Escherichia coli [34]): 50 µg/mL (≈ 114 µM)
Compound: O=[N+]([O-])c1ccc(C2CC(c3cccc4ccccc34)=NN2c2ccc([N+](=O)[O-])cc2)cc1 (centres undefined)
zone of inhibition at 500 µg/mL (Micrococcus luteus [1]): 11 mm
zone of inhibition at 250 µg/mL (Pseudomonas fluorescens [2]): 10 mm
zone of inhibition at 500 µg/mL (Pseudomonas aeruginosa [3]): 11 mm
zone of inhibition at 500 µg/mL (Bacillus pumilus [4]): 10 mm
zone of inhibition at 1000 µg/mL (Penicillium chrysogenum [5]): 15 mm
zone of inhibition at 750 µg/mL (Pseudomonas aeruginosa [6]): 13 mm
zone of inhibition at 100 µg/mL (Aspergillus niger [7]): 12 mm
zone of inhibition at 750 µg/mL (Pseudomonas fluorescens [8]): 14 mm
zone of inhibition at 1000 µg/mL (Micrococcus luteus [9]): 13 mm
zone of inhibition at 500 µg/mL (Pseudomonas fluorescens [11]): 11 mm
zone of inhibition at 750 µg/mL (Bacillus subtilis [13]): 15 mm
zone of inhibition at 750 µg/mL (Staphylococcus aureus [14]): 11 mm
zone of inhibition at 1250 µg/mL (Aspergillus niger [15]): 25 mm
zone of inhibition at 1250 µg/mL (Pseudomonas aeruginosa [16]): 19 mm
zone of inhibition at 500 µg/mL (Penicillium chrysogenum [17]): 12 mm
zone of inhibition at 1250 µg/mL (Pseudomonas fluorescens [19]): 21 mm
zone of inhibition at 1250 µg/mL (Bacillus pumilus [20]): 20 mm
zone of inhibition at 100 µg/mL (Bacillus subtilis [21]): 11 mm
zone of inhibition at 500 µg/mL (Bacillus subtilis [22]): 13 mm
zone of inhibition at 500 µg/mL (Escherichia coli [23]): 12 mm
zone of inhibition at 1000 µg/mL (Aspergillus niger [24]): 20 mm
zone of inhibition at 100 µg/mL (Escherichia coli [25]): 10 mm
zone of inhibition at 250 µg/mL (Bacillus subtilis [26]): 12 mm
zone of inhibition at 1250 µg/mL (Escherichia coli [27]): 17 mm
zone of inhibition at 1000 µg/mL (Staphylococcus aureus [28]): 12 mm
zone of inhibition at 500 µg/mL (Staphylococcus aureus [29]): 10 mm
zone of inhibition at 250 µg/mL (Staphylococcus aureus [30]): 9 mm
zone of inhibition at 250 µg/mL (Bacillus pumilus [31]): 8 mm
zone of inhibition at 250 µg/mL (Pseudomonas aeruginosa [35]): 10 mm
zone of inhibition at 500 µg/mL (Aspergillus niger [36]): 14 mm
zone of inhibition at 250 µg/mL (Escherichia coli [37]): 11 mm
zone of inhibition at 750 µg/mL (Bacillus pumilus [38]): 15 mm
zone of inhibition at 1250 µg/mL (Micrococcus luteus [39]): 15 mm
zone of inhibition at 1000 µg/mL (Bacillus subtilis [40]): 17 mm
zone of inhibition at 750 µg/mL (Micrococcus luteus [41]): 12 mm
zone of inhibition at 250 µg/mL (Penicillium chrysogenum [42]): 10 mm
zone of inhibition at 1000 µg/mL (Pseudomonas aeruginosa [43]): 16 mm
zone of inhibition at 1000 µg/mL (Pseudomonas fluorescens [44]): 18 mm
